{"source": "patent US8178515B2", "about": "“β-hydroxy-γ-aminophosphonates and methods for the preparation and use thereof” (Nucitec S.A. de C.V., priority 2008, dated 2012)", "key": {"WRL-68 cells [1]": {"system": "WRL-68 cells", "method": "Two cell lines were used for this study: 293Q cells derived from normal epithelial cells of human fetal kidney (CRL-1573 ATCC) and WRL-68 cells derived from epithelial cells of human liver (CRL-48 ATCC). Cell lines were cultured in minimal essential medium (MEM, GIBCO BRL Inc., Grand Island, N.Y.), supplemented with nonessential amino acids (GIBCO BRL Inc., Grand Island, N.Y.), 10% fetal calf serum (GIBCO BRL Inc., Grand Island, N.Y.), 1-glutamine (2 mol/L), and antibiotics. Cells were plated in 100-mm culture dishes (10^6 cells/dish), and maintained at 37° C. under an atmosphere of 5% CO2 in humidified air. Subcultures were obtained by trypsinization (0.025% trypsin solution containing 0.01% N,N-diethyldithiocarbamic acid sodium salt, EDTA). For cytological investigation, 10^5 cells per mL of MEM medium were used. […] After incubation of the cells with the extract, they were collected for further cytological investigations.\nCells were incubated in 96-well plates. After 24 h, the medium was removed; the cells were washed twice with PBS and then incubated with analog. […] Cell viability was measured by a 3-(4,5-dimethylthiazol-2-yl)-2,5-diphenyltetrazolium bromide (MTT) assay (Wang et al., Journal Ocular. Pharm. Ther. 12: 35-43 (1996)). […] When the blue crystals were dissolved, the optical density was determined on a microplate reader at 450 nm. […]"}, "WRL-68 cells [2]": {"system": "WRL-68 cells", "test": "Utilization of glucose in hepatic cells, in vitro hyperglycemia model (glucose and glycogen levels)", "type": "cell-based, human", "conditions": "24 hours; for reduction of extracellular glucose levels: conditioned media, 30 mM D-glucose medium", "experimental": "WRL-68 cells were thawed and maintained in culture with Minimal Essential Medium (Gibco BRL) containing 4 mM Glutamine, 1% non essential aminoacids (Gibco BRL), 10% Fetal Calf Serum (FCS), and 100 μg/ml of ampicillin. WRL-68 cells were seeded at […] in complete media in 75 cm^2 cell culture flasks, cells were maintained for 24 hours at 37° C. under an atmosphere of 5% CO2. The medium was changed after 24 hr. Cells were passaged by trypsinization using a 0.025% trypsin solution containing 0.01% N,N,-di-ethyldithiocarbamic acid sodium salt (EDTA). In order to evaluate the effect of analog of carnitine on utilization of glucose levels a model of hyperglycemia in vitro (Nakajina et al., J. Biol. Chem. 275:20880-20886 (2000)) was developed. Two days after plating, the medium was changed to F-12K containing 7 mM D-glucose and 10% fetal bovine serum, and the culture was continued for 2 more days. The cells were then cultured in serum-free F-12K medium containing 30 mM D-glucose for 24 h. Cells were treated with the diastereomeric mixture of compound 7 at concentrations of 0.01, 0.1, 1,10, 100 μM, and 1 mM and 2 mM during 24 hours. Samples of conditioned media and cell lysates were kept to […]. Glucose and glycogen levels were measured by using a Glucose PAP-SL Kit (Tech, USA) and glycogen assay kit (Biovision Research Products, California, USA)."}, "chick embryos": {"system": "chick embryos", "test": "Teratogenicity assay in chick embryos", "conditions": "for Deaths (embryos / total examined) / Embryonic region affected: Axial skeleton (abnormal embryos / total examined) / Embryonic region affected: CNS (abnormal embryos / total examined) / Embryonic region affected: Heart (abnormal embryos / total examined) / Embryonic region affected: Somites (abnormal embryos / total examined) / Embryonic region affected: Vasculature (abnormal embryos / total examined): 48 h of exposition", "experimental": "A teratogenicity assay was carried out as described by Jelinek et al., Func. Devel. Morph. 4:317-23 (1994). Fertile White Leghorn chicken eggs were obtained from A.L.P.E. S.A. (Puebla, Mexico) and were stored at 6° C. Sixty fertilized eggs were weighed, sterilized, and divided into […]. First group served as a non-treated control. The next three were exposed to the diastereomeric mixture of compound 7 (1, 10, and 100 μM). The last group received caffeine (10 mg/mL) and as positive control. Test solutions (1 mL) were added to the air sac under sterile conditions. Each solution was injected after drilling into the shell at the blunt end of the egg; after injection, the holes were immediately sealed with melted paraffin wax. The eggs were then transferred and maintained in a forced draft incubator at 37.5° C. with a relative humidity of 55% until the desired stage of development was reached.\nTo determine the concentration dependency of the diastereomeric mixture of compound 7, a histological analysis was carried out. Embryos in each group were fixed in buffered formal saline (pH 7.4), dehydrated, and embedded in paraffin blocks. Paraffin tissue sections of 6 μm were stained with acetocarmine for routine histological examination."}}}
{"smiles": "CC(C)CC(C(O)CP(=O)(O)O)[N+](C)(C)C.[I-]", "note": "(single isomer, unassigned) [diastereomeric mixture of compound 7]", "values": [{"measurement": "effects on cell proliferation (MTT)", "setting": "WRL-68 cells [1]", "value": "did not show citotoxicity or effects on cell proliferation"}, {"measurement": "reduction of extracellular glucose levels", "setting": "WRL-68 cells [2]; 1 μM", "value": 16, "unit": "%"}, {"measurement": "reduction of extracellular glucose levels", "setting": "WRL-68 cells [2]; 10 μM", "value": 18, "unit": "%"}, {"measurement": "reduction of extracellular glucose levels", "setting": "WRL-68 cells [2]; 100 μM", "value": 23, "unit": "%"}, {"measurement": "reduction of extracellular glucose levels", "setting": "WRL-68 cells [2]; 1 mM", "value": 30, "unit": "%"}, {"measurement": "cellular glycogen levels", "setting": "WRL-68 cells [2]; 2 mM", "value": "increase"}, {"measurement": "reduction of extracellular glucose levels", "setting": "WRL-68 cells [2]; 2 mM", "value": 32, "unit": "%"}, {"measurement": "changes in cellular glucose", "setting": "WRL-68 cells [2]; any concentration (0.01 μM to 2 mM)", "value": "No changes"}, {"measurement": "alterations in embryos (histological analysis)", "setting": "chick embryos; in vivo", "value": "No alterations"}, {"measurement": "effects on cell proliferation (MTT)", "setting": "293Q cells", "value": "did not show citotoxicity or effects on cell proliferation"}]}
{"smiles": "Cn1c(=O)c2c(ncn2C)n(C)c1=O", "note": "[Caffeine, caffeine, reference compound]", "values": [{"measurement": "Deaths (embryos / total examined)", "setting": "chick embryos; positive control, 10 mg/mL", "value": "2/10"}, {"measurement": "Embryonic region affected: Axial skeleton (abnormal embryos / total examined)", "setting": "chick embryos; positive control, 10 mg/mL", "value": "10/10"}, {"measurement": "Embryonic region affected: CNS (abnormal embryos / total examined)", "setting": "chick embryos; positive control, 10 mg/mL", "value": "8/10"}, {"measurement": "Embryonic region affected: Heart (abnormal embryos / total examined)", "setting": "chick embryos; positive control, 10 mg/mL", "value": "8/10"}, {"measurement": "Embryonic region affected: Somites (abnormal embryos / total examined)", "setting": "chick embryos; positive control, 10 mg/mL", "value": "8/10"}, {"measurement": "Embryonic region affected: Vasculature (abnormal embryos / total examined)", "setting": "chick embryos; positive control, 10 mg/mL", "value": "6/10"}]}
{"smiles": "CC(C)C[C@@H]([C@@H](O)CP(=O)(O)O)[N+](C)(C)C.[I-]", "note": "[compound 7, (2R,3S)-(2-hydroxy-5-methyl-3-trimethylamonium-hexyl)-phosphonic acid; iodide]", "values": [{"measurement": "Deaths (embryos / total examined)", "setting": "chick embryos; 1 μM", "value": "0/10"}, {"measurement": "Embryonic region affected: Axial skeleton (abnormal embryos / total examined)", "setting": "chick embryos; 1 μM", "value": "0/10"}, {"measurement": "Embryonic region affected: CNS (abnormal embryos / total examined)", "setting": "chick embryos; 1 μM", "value": "0/10"}, {"measurement": "Embryonic region affected: Heart (abnormal embryos / total examined)", "setting": "chick embryos; 1 μM", "value": "0/10"}, {"measurement": "Embryonic region affected: Somites (abnormal embryos / total examined)", "setting": "chick embryos; 1 μM", "value": "0/10"}, {"measurement": "Embryonic region affected: Vasculature (abnormal embryos / total examined)", "setting": "chick embryos; 1 μM", "value": "0/10"}, {"measurement": "Deaths (embryos / total examined)", "setting": "chick embryos; 100 μM", "value": "0/10"}, {"measurement": "Embryonic region affected: Axial skeleton (abnormal embryos / total examined)", "setting": "chick embryos; 100 μM", "value": "0/10"}, {"measurement": "Embryonic region affected: CNS (abnormal embryos / total examined)", "setting": "chick embryos; 100 μM", "value": "0/10"}, {"measurement": "Embryonic region affected: Heart (abnormal embryos / total examined)", "setting": "chick embryos; 100 μM", "value": "0/10"}, {"measurement": "Embryonic region affected: Somites (abnormal embryos / total examined)", "setting": "chick embryos; 100 μM", "value": "0/10"}, {"measurement": "Embryonic region affected: Vasculature (abnormal embryos / total examined)", "setting": "chick embryos; 100 μM", "value": "0/10"}, {"measurement": "Deaths (embryos / total examined)", "setting": "chick embryos; 1 mM", "value": "0/10"}, {"measurement": "Embryonic region affected: Axial skeleton (abnormal embryos / total examined)", "setting": "chick embryos; 1 mM", "value": "0/10"}, {"measurement": "Embryonic region affected: CNS (abnormal embryos / total examined)", "setting": "chick embryos; 1 mM", "value": "0/10"}, {"measurement": "Embryonic region affected: Heart (abnormal embryos / total examined)", "setting": "chick embryos; 1 mM", "value": "0/10"}, {"measurement": "Embryonic region affected: Somites (abnormal embryos / total examined)", "setting": "chick embryos; 1 mM", "value": "0/10"}, {"measurement": "Embryonic region affected: Vasculature (abnormal embryos / total examined)", "setting": "chick embryos; 1 mM", "value": "0/10"}]}
